Experimental data: patent US5492892A, “Endothelin antagonists” (priority 1994, dated 1996)
Bridge positions count the residues as written; N and C are the ends. Ends that are not written are not given here.

Key:
[1] = test system: isolated, perfused guinea pig lung; assay: Vasoconstrictor (agonist) activity, isolated perfused lung preparation, pulmonary artery pressure
Procedure: Isolated, Perfused Guinea Pig Lung: Another procedure for determining the vasoconstrictor action of the endothelin-active peptides and the blocking action of endothelin antagonists utilizes isolated, perfused guinea pig lung as described in more detail in Example 4, infra.
(§1) The vasoconstrictor activity of Et-1 or Et-3 alone, or in the presence of antagonist, was determined using an isolated, perfused lung preparation (Horgan, M. J., et al. J. Appl. Phsysiol., 63, 93-104 (1987)). Briefly, Hartley guinea pigs (400-500 g) of either sex were anesthetized with 50 mg/kg pentobarbital sodium. Following a tracheotomy, the thorax was opened, the lung and heart excised and the pulmonary artery cannulated. A wide cannula was placed in the left atrium. Perfusion was then started, within 5 min. of opening the thorax. The perfusion flow was set at 28 ml/min. When there was no visible sign of blood in the pulmonary venous effluent, recirculation of the perfusate was started, and pulmonary artery pressure was monitored. Endothelin activity was measured in an accumulative dose-dependent manner for agonist activity by addition of the peptides to a recirculating 300 ml bath. To assess antagonist activity, dose response curves with endothelin were done in the constant presence of antagonist.

vascular beds = settings: a number of vascular beds; Anggard et al.; cited from earlier work
[2] = literature reports; cited from earlier work
Et-1 receptor = settings: competitive and dose dependent manner; Fabregat et al.; cited from earlier work
endothelin responses = settings: Fabregat et al.; cited from earlier work
[3] = test system: Et-1 in Perfused Guinea Pig Lung; assay: Antagonist activity against Et-1 in perfused guinea pig lung; settings: for Pressure Increase Inhibition / Pressure Increase Ppa With Antagonist: antagonist 10^-7 M; for Pressure Increase Ppa With Antagonist: preperfused 5 min then coperfused
Procedure: as §1
The response with lungs preperfused, for 5 min. with [drawing 44] at a concentration of 10^-7 M before coperfusion with Et-1 was compared with the response determined on lungs perfused only with Et-1. (Results in both Tables 1 and 2 are based on the average of 4-7 determinations for each result).

[4] = test system: Et-3 in perfused guinea pig lung; assay: Specificity: lung preparations perfused with Et-3, with and without antagonist
Procedure: as §1
(§2) Specificity of [drawing 47] is illustrated in Table 2 which presents pressure increase data in similar lung preparations perfused with Et-3 and with other vasoconstrictor substances (alpha-thrombin and norepinephrine). As for the results shown in Table 1, pressure increase was determined on lung preparations with and without a 5 minute preperfusion step with 10^-7 M [drawing 48]

[5] = test system: alpha-thrombin in perfused guinea pig lung; assay: Specificity: lung preparations perfused with alpha-thrombin, with and without antagonist; settings: α-Thrombin (10^-8 M); 5 minute preperfusion with 10^-7 M antagonist
Procedure: as §1, §2

[6] = test system: norepinephrine in perfused guinea pig lung; assay: Specificity: lung preparations perfused with norepinephrine, with and without antagonist; settings: Norepinephrine (10^-7 M); 5 minute preperfusion with 10^-7 M antagonist
Procedure: as §1, §2

[7] = target: endothelin receptors of the isolated, perfused guinea pig lung
[8] = target: endothelin receptors of the isolated, perfused guinea pig lung; remark: listed apart in the source
[9] = isolated, perfused guinea pig lung

With `CC[C@H](C)[C@H](NC(=O)[C@H](CC(=O)O)NC(=O)[C@H](CC(C)C)NC(=O)[C@H](Cc1c[nH]cn1)NC(=O)[C@@H]1CSSC[C@H](N)C(=O)N[C@@H](CO)C(=O)N[C@H]2CSSC[C@H](NC(=O)[C@H](CCC(=O)O)NC(=O)[C@H](CCCCN)NC(=O)[C@H](CC(=O)O)NC(=O)[C@H](CCSC)NC(=O)[C@H](CC(C)C)NC(=O)[C@H](CO)NC(=O)[C@H](CO)NC2=O)C(=O)N[C@@H](C(C)C)C(=O)N[C@@H](Cc2ccc(O)cc2)C(=O)N[C@@H](Cc2ccccc2)C(=O)N1)C(=O)N[C@H](C(=O)N[C@@H](Cc1c[nH]c2ccccc12)C(=O)O)[C@@H](C)CC` [Et-1] the “Pressure Increase Ppa Without Antagonist” value ([1]; Et-1 Conc. 2 × 10^-10 M) was 2.3 cm H2 O, the “Pressure Increase Ppa Without Antagonist” value ([1]; Et-1 Conc. 10^-9 M) was 6.1 cm H2 O and the “Pressure Increase Ppa Without Antagonist” value ([1]; Et-1 Conc. 10^-10 M) was 1.2 cm H2 O. The “concentration at which Et-1 is active (dose-dependent increase in pulmonary artery pressure, Ppa)” value [1, 9] was 10^-10 M, the “concentration giving a maximal response (increase in Ppa)” value [1, 9] was 10^-8 M and the “apparent potency order of vasoconstriction” value (vascular beds) was “Et-2>Et-1>Et-3”.

With `NC[C@H](O)c1ccc(O)c(O)c1` [Norepinephrine] the “Ppa Without antagonist” value ([1]; Norepinephrine (10^-7 M)) was 1.3 cm H2 O.

For “Et-2: endothelin isopeptide (CSCSSWLDKECVYFCHLDIIW; ends and bridges not checked; cysteine pairing not given here; UniProt P20800 49-69, looked up)”, the “apparent potency order of vasoconstriction” value (vascular beds) is given as “Et-2>Et-1>Et-3”.

In the case of “[Ala^3,11 ]Et-1: known Et-1 analog (Randall et al.) (CSASSLMDKEAVYFCHLDIIW; ends and bridges not checked; cysteine pairing not given here; UniProt P05305 53-73, looked up, variant C3A C11A)”, the endothelin activity [2] is given as “shows endothelin activity”.

For “[Ala^4 ]Et-1: known Et-1 analog (Nakajima et al.) (CSCASLMDKECVYFCHLDIIW; ends and bridges not checked; cysteine pairing not given here; UniProt P05305 53-73, looked up, variant S4A)”, the endothelin activity [2] is given as “show appreciable endothelin activity”.

For “[Ala^5 ]Et-1: known Et-1 analog (Nakajima et al.)”, the endothelin activity [2] is given as “show appreciable endothelin activity”.

For “[Asn^8 ]Et-1: known Et-1 analog (Nakajima et al.) (CSCSSLMNKECVYFCHLDIIW; ends and bridges not checked; cysteine pairing not given here; UniProt P05305 53-73, looked up, variant D8N)”, the endothelin activity [2] is given as “show appreciable endothelin activity”.

In the case of “[D-Arg^1, D-Phe^5, D-Trp^7,9, Leu^11 ] substance P”, the “inhibition of ^125 I-labelled Et-1 binding to an Et-1 receptor” value (Et-1 receptor) is listed as “able to inhibit” and the “blocking of endothelin responses” value (endothelin responses) is listed as “blocks certain endothelin responses”.

With [Dpr^1 -Asp^15 ]Et-1 the “agonist activity (increase in Ppa)” value ([1]; doses as high as 1×10^-6 M) was “essentially no agonist activity”, the “Pressure Increase Inhibition” value ([3]; Et-1 2 × 10^-10 M) was 75% and the “Pressure Increase Ppa With Antagonist” value ([3]; Et-1 2 × 10^-10 M) was 0.6 cm H2 O. For the same molecule, the “Pressure Increase Inhibition” value ([3]; Et-1 10^-9 M) was 65%, the “Pressure Increase Ppa With Antagonist” value ([3]; Et-1 10^-9 M) was 2.1 cm H2 O and the “Pressure Increase Inhibition” value ([3]; Et-1 10^-10 M) was 95%. For the same molecule, the “Pressure Increase Ppa With Antagonist” value ([3]; Et-1 10^-10 M) was 0.06 cm H2 O, the “blocking activity at higher doses of the analog” value ([3]; doses higher than 10^-7 M) was “did not substantially increase this blocking activity” and the “Ppa With antagonist” value ([4]; Et-3 (10^-9 M), 5 minute preperfusion with 10^-7 M antagonist) was 5.8 cm H2 O. For the same molecule, the “antagonist activity against vasoconstricting substances other than Et-1” value ([4]; lung preparations treated with Et-3, α-thrombin or norepinephrine) was “no antagonist activity”, the “Ppa With antagonist” value [5] was 8.5 cm H2 O and the “Ppa With antagonist” value [6] was 1.3 cm H2 O.

For [Dpr^1 -Asp^15 ]Et-1 (peptide), the Pressure Increase Inhibition (%) of the Et-1 response, lung preperfused and coperfused with 10^-7 M antagonist [7] was 95%.

In the case of “[Gly^6 ]Et-1: known Et-1 analog (Nakajima et al.) (CSCSSGMDKECVYFCHLDIIW; ends and bridges not checked; cysteine pairing not given here; UniProt P05305 53-73, looked up, variant L6G)”, the endothelin activity [2] is listed as “show appreciable endothelin activity”.

For “[Leu^9 ]Et-1: known Et-1 analog (Nakajima et al.) (CSCSSLMDLECVYFCHLDIIW; ends and bridges not checked; cysteine pairing not given here; UniProt P05305 53-73, looked up, variant K9L)”, the endothelin activity [2] is given as “show appreciable endothelin activity”.

In the case of “[Phe^13 ]Et-1: known Et-1 analog (Nakajima et al.) (CSCSSLMDKECVFFCHLDIIW; ends and bridges not checked; cysteine pairing not given here; UniProt P05305 53-73, looked up, variant Y13F)”, the endothelin activity [2] is listed as “show appreciable endothelin activity”.

For “[Phe^21 ]Et-1: known Et-1 analog (Nakajima et al.) (CSCSSLMDKECVYFCHLDIIF; ends and bridges not checked; cysteine pairing not given here; UniProt P05305 53-73, looked up, variant W21F)”, the endothelin activity [2] is listed as “show appreciable endothelin activity”.

For “[Tyr^21 ]Et-1: known Et-1 analog (Nakajima et al.) (CSCSSLMDKECVYFCHLDIIY; ends and bridges not checked; cysteine pairing not given here; UniProt P05305 53-73, looked up, variant W21Y)”, the endothelin activity [2] is listed as “show appreciable endothelin activity”.

B1: Endothelin 3 (peptide)
peptide: CTCFTYKDKECVYYCHLDIIW
modifications: disulfide 1-15, 3-11
In the case of B1, the Ppa (cm H2O), isolated perfused guinea pig lung, Et-3 at 10^-9 M without antagonist [8] is reported as 3.8 cm H2O.
